Values joined by “and” are separate entries in the source; they are usually repeats but may differ in a detail not shown here. Identical values can stand only once.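 Exposure lasted 48 hours, with cells grown in 96-well plates and compounds tested at five concentrations. GI50 = concentration required for 50% inhibition of growth.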 Active and inactive are the calls of the source. Cut-off read from the data, not from the text of the source: active = GI50 up to about 1.1 µM and inactive = higher.
Key:
Assay in all cases: inhibition of tumour cell growth, NCI panel, 48 h
A549 = tested on: A549
COLO 205 = tested on: COLO 205
EKVX = tested on: EKVX
HCC 2998 = tested on: HCC 2998
HL-60 = tested on: HL-60
HOP-92 = tested on: HOP-92
IGROV-1 = tested on: IGROV-1
LOX IMVI = tested on: LOX IMVI
MOLT-4 = tested on: MOLT-4
OVCAR-3 = tested on: OVCAR-3
OVCAR-4 = tested on: OVCAR-4
OVCAR-8 = tested on: OVCAR-8
RPMI-8226 = tested on: RPMI-8226
SF-295 = tested on: SF-295
SF-539 = tested on: SF-539
SK-OV-3 = tested on: SK-OV-3
SN12C = tested on: SN12C
SNB-19 = tested on: SNB-19
SW-620 = tested on: SW-620
UACC-62 = tested on: UACC-62

Row | Compound | GI50 (A549) | GI50 (COLO 205) | GI50 (EKVX) | GI50 (HCC 2998) | GI50 (HL-60) | GI50 (HOP-92) | GI50 (IGROV-1) | GI50 (LOX IMVI) | GI50 (MOLT-4) | GI50 (OVCAR-3) | GI50 (OVCAR-4) | GI50 (OVCAR-8) | GI50 (RPMI-8226) | GI50 (SF-295) | GI50 (SF-539) | GI50 (SK-OV-3) | GI50 (SN12C) | GI50 (SNB-19) | GI50 (SW-620) | GI50 (UACC-62)
1 | CCOC1=NC(C(F)(F)F)(C(F)(F)F)N=C(N2CCOCC2)O1 | > 100 µM (inactive) | > 100 µM (inactive) | > 100 µM (inactive) | > 100 µM (inactive) | 89.5 µM (inactive) | > 100 µM (inactive) | > 100 µM (inactive) | > 100 µM (inactive) | > 100 µM (inactive) | > 100 µM (inactive) | > 100 µM (inactive) | > 100 µM (inactive) | > 100 µM (inactive) | > 100 µM (inactive) | > 100 µM (inactive) | > 100 µM (inactive) | > 100 µM (inactive) | > 100 µM (inactive) | > 100 µM (inactive) | 24 µM (inactive)
2 | CCOC(=O)c1ncoc1[C@H]1COC(C)(C)O1 | > 100 µM (inactive) | – | > 100 µM (inactive) | > 100 µM (inactive) | > 100 µM (inactive) | – | > 100 µM (inactive) | > 100 µM (inactive) | > 100 µM (inactive) | > 100 µM (inactive) | > 100 µM (inactive) | > 100 µM (inactive) | > 100 µM (inactive) | > 100 µM (inactive) | > 100 µM (inactive) | > 100 µM (inactive) | > 100 µM (inactive) | > 100 µM (inactive) | > 100 µM (inactive) | > 100 µM (inactive)
3 | CCCCCCCCCCSCC(CO)NC(=O)/C=C/c1c(C)[nH]c(=O)[nH]c1=O (stereo not drawn) | 32.8 µM (inactive) and > 50 µM (inactive) | 762 nM (active) and 1.19 µM (inactive) | 3.93 µM (inactive) and 2.01 µM (inactive) | 1.08 µM (active) and 1.17 µM (inactive) | 1.82 µM (inactive) and 1.42 µM (inactive) | 1.54 µM (inactive) and 820 nM (active) | 2.43 µM (inactive) and 2.48 µM (inactive) | 1.29 µM (inactive) and 1.42 µM (inactive) | 1.22 µM (inactive) and 1.44 µM (inactive) | 916 nM (active) and 798 nM (active) | – | 1.04 µM (active) and 1.09 µM (active) | 23.1 µM (inactive) and 33.5 µM (inactive) | 29.1 µM (inactive) and 17.9 µM (inactive) | 1.46 µM (inactive) and 1.41 µM (inactive) | – | 1.37 µM (inactive) and 1.09 µM (active) | 881 nM (active) and 925 nM (active) | 1.61 µM (inactive) and 1.51 µM (inactive) | 1.03 µM (active) and 1.17 µM (inactive)
4 | COc1cccc(N2C(=O)CSC2c2c[nH]c3ccccc23)c1 (stereo not drawn) | – | > 100 µM (inactive) | > 100 µM (inactive) | > 100 µM (inactive) | > 100 µM (inactive) | 66.1 µM (inactive) | > 100 µM (inactive) | > 100 µM (inactive) | > 100 µM (inactive) | > 100 µM (inactive) | 73.6 µM (inactive) | > 100 µM (inactive) | – | > 100 µM (inactive) | – | > 100 µM (inactive) | > 100 µM (inactive) | > 100 µM (inactive) | > 100 µM (inactive) | > 100 µM (inactive)

Reference: ChEMBL document CHEMBL1201862, “PubChem BioAssay data set” (2004)
